How the values were obtained:
[1] = system: corn gene expression; experiment: RNAseq of corn seedlings, variability of gene expression (FIGS. 17-19); format: in vivo
From the text: Plants colonized by Trichoderma show highly focused and reproducible patterns of gene expression. Uncolonized plants show highly variable gene expression. We propose that gene expression in plants colonized by Trichoderma responds specifically to that colonization and further that Trichoderma redirects plant gene expression to more targeted biological processes supporting Trichoderma niche development. Gene expression in uncolonized plants responds to the entire set of environmental factors present with relatively little process hierarchy. FIG. 17 depicts a representation of all gene expression in corn seedlings exposed to various seed treatments versus an untreated seed in both standard and drought conditions. FIG. 17 further groups the applicable replicates in order to convey variability, and data sets refer to principal component analysis, in order to evidence variability. All samples with the exception of the Trichoderma metabolite (1-Octene-3-ol), are root apical meristem (RAM) measurements. The sampling occurred from seeds that were grown for seven days before sampling. Observed variability was high in corn gene expression in standard and drought conditions. (See untreated). […] (see SabrEx and Oct). Thus, untreated plants are busy responding to a lot of environmental factors, Trichoderma strain treatment/1-Octene-3-ol treated plants are controlled somewhat by the treatment, which supports findings in previous RNAseq experiments, where correlation is shown by the reduction in microbiome diversity in the field, in the reduction of error bars in field performance data. This is a clear benefit of Trichoderma strain treatment and metabolite (1-Octene-3-ol). Reduction of variable performance in the field is therefore because the plant gene expression has been remodeled or refined by Trichoderma. FIGS. 18A-B depict multidimensional scaling plots of corn gene expression when colonized by Trichoderma, particularly, 2-Trichoderma strain treatment and untreated in unstressed conditions. […]

[2] = system: maize gene expression; experiment: Differential gene expression (Blast 2Go DGE) in maize versus control (FIGS. 20-25); format: in vivo
Description: Turning to FIGS. 20-24, differential gene expression (Blast 2Go DGE) is measured, wherein the corresponding legend of FIG. 20 presents comparison to a control, wherein the higher scale shown (color or patterned), the higher level of upregulation has occurred.
The lab plants were grown in conical tubes with nutrient bath and to simulate osmotic stress from drought they added a polyethylene glycol (PEG) solution to the tubes.
FIG. 25 depicts a table of changes in corn gene expression versus an untreated control in RNAseq experiments of FIGS. 20-24. Reference to “Lab (sterile, no soil)” is the data from the conical tube experiments of FIG. 23 and FIG. 24.

[3] = system: rhizosphere inhabitants; conditions: in vivo
Description: A survey of rhizosphere inhabitants in a corn trial with control, Trichoderma strain treatment for corn (2 ABM Trichoderma strains), [MUT] (ABM Trichoderma+Bacillus strains), or Trichoderma metabolite (1-Octene-3-ol) seed treatments was made. The organism lifestyle metadata were analyzed for each treatment.

SMILES: C=CC(O)CCCCC (centres unmarked) [1-Octene-3-ol]
- Reproducibility of expression pattern (multidimensional scaling plot) ([1]; FIGS. 18A-B, unstressed conditions per legend): generally more reproducible expression pattern than the untreated
- Reproducibility of expression pattern (multidimensional scaling plot) ([1]; FIGS. 19A-B, drought conditions per legend): generally more reproducible expression pattern than the untreated
- Effect on variability of overall corn gene expression (principal component analysis) ([1]; seedlings grown seven days, standard and drought conditions, FIG. 17): focusses gene expression
- Shoot responses upregulated [2]: Abiotic stimulus, water deprivation, and chemical stimulus
- Plant disease resulting from rhizosphere pathogens [3]: did not result in plant disease

From US20200170259A1, “COMPOSITIONS AND METHODS FOR INDUCING PLANT GENE EXPRESSION AND ALTERING PLANT MICROBIOME COMPOSITION FOR IMPROVED CROP PERFORMANCE” (ADVANCED BIOLOGICAL MARKETING, INC., priority 2018, published 2020)
